Experimental data published in publication PMC3668304, “Antidiabetic and antioxidant properties of Ficus deltoidea fruit extracts and fractions” (BMC Complementary and Alternative Medicine, 2013).
≈ marks a conversion by molar mass, not a printed value.

Target: T1, rat intestinal α-glucosidase (substrate pNPG)
T1 construct: gene Si; crude native enzyme from Sigma rat intestinal acetone powder
Experiment: colorimetric p-nitrophenol release, […] nm
Type: biochemical
Details: substrate 4 mM pNPG (added stock); sodium phosphate buffer; 37°C, 30 min; crude enzyme

IC50: 57.79 ± 0.66 µg/mL (≈ 89.5 µM)
Structure (SMILES): C[C@H]1O[C@H](O[C@H]2[C@H](O)[C@@H](O)[C@@H](O[C@H]3[C@H](O)[C@@H](O)C(O)O[C@@H]3CO)O[C@@H]2CO)[C@H](O)[C@@H](O)[C@@H]1N[C@H]1C=C(CO)[C@@H](O)[C@H](O)[C@H]1O (stereo partly shown) [acarbose]
